Like-named read-outs stand apart in the source and are kept apart here.
Test system: Anthonomus grandis (Cotton Boll Weevil)
Assay: Anthonomus grandis (Cotton Boll Weevil) test on sprayed cotton plants, mortality assessed
Assay type: in vivo
Details: 120 h, read-out: control (mortality assessed)
Protocol: Anthonomus grandis (Cotton Boll Weevil)
Cotton plants are treated (100 mL spray volume) and 10 adult weevils are added to each plant (2 replicates per concentration). 5 days after infestation the mortality is assessed. The following compounds were tested and gave at least 80% control at 50 ppm: B3, B4, C2, C3, C4, E1, E7
Compounds are tested according to the above method.

[1] = 50 ppm, cotton plants treated (100 mL spray volume), 10 adult weevils per plant, 5 days after infestation

Row | SMILES | mortality at 50 ppm [1] [%] | mortality at 50 ppm [%]
1 | C[C@H](NC(=O)C1CC1)c1ccc(C2(C(F)(F)F)CN=C(c3cc(Cl)c(Cl)c(Cl)c3)C2)cc1 (stereo partly drawn) [Compound B3, N-[(1S)-1-[4-[5-(3,4,5-trichlorophenyl)-3-(trifluoromethyl)-2,4-dihydropyrrol-3-yl]phenyl]ethyl]cyclopropanecarboxamide] | ≥ 80 | 
2 | C[C@H](NC(=O)C1CC1)c1ccc(N2CCC(c3cc(C(F)(F)F)cc(C(F)(F)F)c3)(C(F)(F)F)C2)cc1 (stereo partly drawn) [Compound B4, N-[(1S)-1-[4-[3-[3,5-bis(trifluoromethyl)phenyl]-3-(trifluoromethyl)pyrrolidin-1-yl]phenyl]ethyl]cyclopropanecarboxamide] | ≥ 80 | 
3 | N#Cc1cc(C2=NCC(c3cc(Cl)c(Cl)c(Cl)c3)(C(F)(F)F)C2)ccc1-n1cncn1 (centres unmarked) [Compound C2, 2-(1,2,4-triazol-1-yl)-5-[3-(3,4,5-trichlorophenyl)-3-(trifluoromethyl)-2,4-dihydropyrrol-5-yl]benzonitrile] | ≥ 80 | 
4 | N#Cc1cc(C2=NOC(c3cc(Cl)c(F)c(Cl)c3)(C(F)(F)F)C2)ccc1-n1cncn1 (centres unmarked) [Compound C3] |  | ≥ 80
5 | CCC(=O)NC1CCc2cc(C3=NOC(c4cc(Cl)cc(Cl)c4)(C(F)(F)F)C3)ccc21 (centres unmarked) [Compound E1] |  | ≥ 80
